By EC50 is commonly meant the midpoint of the concentration-response curve.

The values that follow come from patent US20190330167A1, “ACTIVATORS OF HIV LATENCY” (priority 2016, published 2019).

This assay deals with HIV-1 long terminal repeat (LTR)-driven luciferase reporter gene in FlipIn.FM HEK293 cells. As to the kind of experiment: cells. Type of assay: cell-based. Conditions: 11-point, 2-fold dilution series, highest concentration 40 μM, read-out: Latent reporter Av EC50. The protocol: FIG. 44. […] The FlipIn.FM model of HIV-1 latency was treated with JQ1 (+) and DP#14 (Compound 7) alone at 10 μM and in combination, and the HIV-1 gene expression measured 48 hrs post treatment. Error bars represent standard deviation of n=3 experiments. OPTI represents media alone, without DP#14.
FIG. 46. […] The FlipIn.FM model of HIV-1 latency was treated with PFI-1 and DP#14 alone at 10 μM and in combination, and the HIV-1 gene expression measured 48 hrs post treatment. Error bars represent standard deviation of n=3 experiments. OPTI represents media alone, without DP#14.
Explicitly, HEK293 derived FlipIn-FM and FlipIn-RV dual reporter cells each include a single stable HIV-1 long terminal repeat (LTR)-driven luciferase reporter genes, with a second complimentary non-HIV (off-target) luciferase reporter. These cell lines model post integration latency and read-through transcription by expressing a low level of HIV-1 Tat protein via a native Internal Ribosome Entry Site (IRES) found within Tat, from a chimeric cellular-tat gene cassette. FlipIn-FM and FlipIn-RV clones were chosen for low basal levels of LTR activity and high responsiveness to Tat as well as many Latency Reversing Agents (LRAs).
The dual reporter cell lines contain three stably integrated constructs that together allow for detection of novel LRAs, capable of potent and specific HIV reactivation. The FlipIn.FM line contains a proviral LTR-driven nef/CBR reporter fusion gene, allowing for detection of viral gene expression. A second CMV-driven CBG luciferase reporter allows for detection of off target drug effects, including non-specific activation and drug toxicity. The third construct contains the first coding exon of HIV-1 tat, within human Growth Hormone (hGH) as a chimeric gene, expressing HIV-1 Tat protein from an IRES mechanism that underlies the tat exon. This construct models read-through transcription and the low level of Tat protein expression that occurs during post integration latency. The counter screening reverse cell line, FlipIn.RV, contains the same three components with the Click Beetle Luciferase genes in the opposite orientation (LTR-CBG and CMV-CBR) for counter screening.
Compounds were evaluated in an 11-point titration using normal CMV-CBG/LTR-CBR reporter cell line and an 11 point reverse CMV-CBR/LTR-CBG reporter cell line.
The FlipIn cell lines were therefore designed with a dual purpose, to detect novel compounds that reactivate HIV-1 and to also screen out compounds that behaved in a largely non-specific manner. To achieve the latter, the cell lines contain an “off target” reporter gene construct, driven by the unrelated CMV-IE promoter, that allows for the detection of drug mediated off target effects including global gene activation as well as possible toxicity.
The HIV-LTR driven latent reporter gene identifies the HIV-specific activation, and the term “global reporter” is interchangeable with “off target reporter” and refers to the unrelated CMV-IE promoter driven reporter gene, which is used as a surrogate for global gene activation. […] The highest concentration tested here was 40 μM.

[1] abbreviates: Human immunodeficiency virus 1, HEK293, HIV-LTR driven latent reporter.

Where two headings read alike, the source gives them in different places.

Turning to `Cc1cnc(NC(=O)CCCOc2ccc(Cl)c(C)c2)s1` [Compound 1], the EC50 (HIV-LTR driven latent reporter) came to 4.88 µM.
Consider `Cc1cnc(NC(=O)CCCCc2ccccc2)s1` [Compound 4], for which the EC50 under setting [1] came out at 9.26 µM.
Same read-out and setting: next, `N#Cc1cnc(NC(=O)CCCOc2ccccc2)s1` [Compound 5]: 3.48 µM.
Same read-out and setting: under `CCc1cnc(NC(=O)CCCOc2ccccc2)s1` [Compound 6] stands 1.09 µM.
As to `O=C(CCCOc1ccccc1)Nc1ncc(Cl)s1` [Compound 8], the EC50 under setting [1] was determined as 1.99 µM.
As to `Cc1cnc(NC(=O)CCCOc2ccc(Cl)c(Cl)c2)s1` [Compound 12], the EC50 under setting [1] was 3.22 µM.
Still for that read-out and setting: next, `Cc1cnc(NC(=O)CCCOc2ccc(Br)c(Cl)c2)s1` [Compound 14]: 3.09 µM.
`O=C(CCCOc1ccc(Br)c(Cl)c1)Nc1ncc(Br)s1` [Compound 15]: the EC50 under setting [1] is 2.56 µM.
Still for that read-out and setting: under `O=C(CCCOc1ccc(Cl)c(Cl)c1)Nc1ncc(Br)s1` [Compound 16] stands 1.23 µM; under `Cc1cc(OCCCC(=O)Nc2ncc(Br)s2)ccc1Cl` [Compound 17], 2.83 µM; under `O=C(CCCOc1ccc(Br)c(Cl)c1)Nc1ncc(Cl)s1` [Compound 18], 2.83 µM.
The same measure, in the same setting: under `O=C(CCCOc1ccc(Cl)c(Cl)c1)Nc1ncc(Cl)s1` [Compound 19] stands 1.48 µM.
Turning to `Cc1cc(OCCCC(=O)Nc2ncc(Cl)s2)ccc1Cl` [Compound 20], the EC50 under setting [1] is 1.85 µM.
On the same count and under the same terms, next, `N#Cc1cnc(NC(=O)CCCOc2ccc(Br)c(Cl)c2)s1` [Compound 21]: 2.12 µM; `CCc1cnc(NC(=O)CCCOc2ccc(Br)c(Cl)c2)s1` [Compound 22]: 2.01 µM.
On to `O=C(CCCOc1ccccc1)Nc1ccc(Br)cn1` [Compound 29], for which, under setting [1], the EC50 turned out to be 7.6 µM.
`O=C(CCCOc1ccccc1)Nc1ccc(C(F)(F)F)cn1` [Compound 30]: the EC50 under setting [1] was found to be 9.74 µM.
The same measure, in the same setting: under `Cc1cnc(NC(=O)CCCOc2ccc(Cl)c(C)c2)s1` [Compound 36] stands 4.2 µM; under `Cc1cnc(NC(=O)CCCOc2ccc(Cl)c(C(F)(F)F)c2)s1` [Compound 38], 5.07 µM; under `O=C(CCCOc1ccccc1)Nc1ccc(Cl)cn1` [Compound 40], 6.86 µM.
Same read-out and setting: next, `COc1ccccc1OCCCC(=O)Nc1ncc(C)s1` [Compound 42]: 1.42 µM.
On the same count and under the same terms, under `Cc1cnc(NC(=O)CCCOc2cccc(O)c2)s1` [Compound 43] stands 12.5 µM; under `COc1cccc(OCCCC(=O)Nc2ncc(C)s2)c1` [Compound 44], 5.3 µM; under `Cc1cnc(NC(=O)CCCOc2cccc([N+](=O)[O-])c2)s1` [Compound 45], 5.29 µM.
On to `Cc1cnc(NC(=O)CCCOc2cccc(Cl)c2)s1` [Compound 46], for which the EC50 under setting [1] amounted to 5.23 µM.
As for `Cc1cnc(NC(=O)CCCOc2cccc(C(F)(F)F)c2)s1` [Compound 47], under setting [1], the EC50 was found to be 6.55 µM.
On the same count and under the same terms, under `Cc1cnc(NC(=O)CCCOc2cccc(CO)c2)s1` [Compound 48] stands 4.13 µM.
Same read-out and setting: under `Cc1cnc(NC(=O)CCCOc2cccc(C=O)c2)s1` [Compound 49] stands 2.64 µM; under `O=C(CCCOc1ccccc1)Nc1ncc(C(F)(F)F)s1` [Compound 51], 2.37 µM.
The same measure, in the same setting: under `CC(C)c1cnc(NC(=O)CCCOc2ccccc2)s1` [Compound 52] stands 3.8 µM; under `Cc1cc(OCCCC(=O)Nc2ccc(Cl)cn2)ccc1Cl` [Compound 54], 19.4 µM; under `COc1ccc(NC(=O)CCCOc2ccc(Cl)c(C)c2)nc1` [Compound 55], 17.9 µM.
For the molecule `Cc1cnc(NC(=O)CCCN(C)c2ccccc2)s1` [Compound 56], the EC50 under setting [1] turned out to be 14.8 µM.
On the same count and under the same terms, next, `Cc1cnc(NC(=O)CCCNc2ccc(Cl)c(C)c2)s1` [Compound 57]: 1.7 µM.
Regarding `Cc1cnc(NC(=O)CCCNc2ccc(Cl)c(C(F)(F)F)c2)s1` [Compound 58], under setting [1], the EC50 stood at 2 µM.
The same measure, in the same setting: next, `Cc1cnc(NC(=O)CCCN(C)c2ccc(Cl)c(C)c2)s1` [Compound 59]: 1.11 µM; `Cc1ccc(OCCCC(=O)Nc2ncc(Cl)s2)cc1Cl` [Compound 60]: 3.56 µM.
The same measure, in the same setting: next, `Cc1cc(OCCCC(=O)Cc2ncc(C(C)C)s2)ccc1Cl` [Compound 61]: 4.29 µM; `Cc1cc(OCCCC(=O)Nc2ncc(C(F)(F)F)s2)ccc1Cl` [Compound 62]: 4.74 µM.
`Cc1cnc(NC(=O)N2CCN(c3ccc(C)c(Cl)c3)CC2)s1` [Compound 63]: under setting [1], the EC50 was 0.45 µM.
On the same count and under the same terms, under `Cc1cnc(NC(=O)N2CCN(c3ccc(Cl)c(Cl)c3)CC2)s1` [Compound 66] stands 0.58 µM.
Still for that read-out and setting: under `O=C(Nc1ncc(Cl)s1)N1CCN(c2ccc(Cl)c(Cl)c2)CC1` [Compound 67] stands 0.27 µM.
`N#Cc1cnc(NC(=O)N2CCN(c3ccc(Cl)c(Cl)c3)CC2)s1` [Compound 68]: the EC50 under setting [1] is 0.52 µM.
Same read-out and setting: under `Cc1cnc(NC(=O)N2CCN(c3ccc(Cl)c(C)c3)CC2)s1` [Compound 69] stands 0.34 µM; under `Cc1cc(N2CCN(C(=O)Nc3ncc(Cl)s3)CC2)ccc1Cl` [Compound 70], 0.21 µM; under `Cc1cc(N2CCN(C(=O)Nc3ncc(C#N)s3)CC2)ccc1Cl` [Compound 71], 0.88 µM.
On the same count and under the same terms, next, `Cc1cc(N2CCN(C(=O)Nc3ncc(Cl)s3)CC2)ncc1C#N` [Compound 72]: 0.25 µM.
On to `Cc1ccc(N2CCCN(C(=O)Nc3ncc(Cl)s3)CC2)cc1Cl` [Compound 74], for which the EC50 under setting [1] amounted to 5.2 µM.
Still for that read-out and setting: next, `O=C(Nc1ncc(Cl)s1)N1CCCN(c2ccc(Cl)c(Cl)c2)CC1` [Compound 75]: 5.46 µM.
The same measure, in the same setting: next, `Cc1cnc2[nH]c(CCCOc3ccc(C)c(Cl)c3)nc2c1` [Compound 76]: 7.75 µM.
Turning to `Cc1ccc(OCCCc2nc3cc(Br)cnc3[nH]2)cc1Cl` [Compound 77], the EC50 under setting [1] worked out at 3.97 µM.
The same measure, in the same setting: under `Cc1ccc(N2CCC(C(=O)Nc3ncc(Cl)s3)CC2)cc1Cl` [Compound 78] stands 11.4 µM.
Take `Cc1ccc(N2CCC(C(=O)Nc3ncc(C#N)s3)CC2)cc1Cl` [Compound 79]: the EC50 under setting [1] was found to be 3.83 µM.
Still for that read-out and setting: under `Cc1cnc(NC(=O)N2CCC(Nc3ccc(Cl)c(C)c3)C2)s1` (centres unmarked) [Compound 80] stands 10.1 µM; under `Cc1cc(NC2CCN(C(=O)Nc3ncc(Cl)s3)C2)ccc1Cl` (centres unmarked) [Compound 81], 1.5 µM; under `Cc1cc(OCCC(=O)Nc2ncc(Cl)s2)ccc1Cl` [Compound 83], 2.2 µM.
